According to patent US7189851B2, “Condensed heterocyclic compounds as calcitonin agonists” (SmithKline Beecham Corporation, priority 2002, dated 2007):
pEC50: −log10 of the molar value.

Molecular target: T1, human calcitonin-2 receptor (hCT2R) (Homo sapiens, UniProt P30988)
T1 construct: expressed in transfected cells; host or cells: Chinese hamster ovary (CHO) cells co-transfected with a 6CRE-luciferase reporter; receptor cDNA cloned from the MCF7 cell line
T1 sequence (P30988 25-474): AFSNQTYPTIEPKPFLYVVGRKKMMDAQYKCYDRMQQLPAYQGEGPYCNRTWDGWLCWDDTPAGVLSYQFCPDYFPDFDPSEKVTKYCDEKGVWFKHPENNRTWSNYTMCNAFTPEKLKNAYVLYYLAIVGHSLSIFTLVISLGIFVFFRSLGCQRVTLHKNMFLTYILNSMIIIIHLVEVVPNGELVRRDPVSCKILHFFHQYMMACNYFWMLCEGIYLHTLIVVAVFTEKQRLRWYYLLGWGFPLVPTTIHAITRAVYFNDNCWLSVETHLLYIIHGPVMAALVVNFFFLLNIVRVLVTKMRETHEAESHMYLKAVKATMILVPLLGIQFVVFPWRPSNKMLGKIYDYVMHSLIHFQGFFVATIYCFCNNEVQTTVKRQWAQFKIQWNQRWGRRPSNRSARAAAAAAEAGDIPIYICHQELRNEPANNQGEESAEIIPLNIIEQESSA
Assay: HCT2R CRE-luc reporter assay
Format: cell-based
Conditions: agonist activity; CHO-6CRE-luciferase cells co-transfected with hCT2R
Method: The compounds of the present invention elicit important and measurable pharmacological responses. As is to be expected, the efficacy of any compound will vary depending upon the particular assay and the particular compound tested.
All recombinant cell line human calcitonin receptor assays were carried out with the human receptor corresponding to GeneBank Accession Number X69920, [See: Molecular Pharmacology 46 (2):246–255, 1994, Cloning and characterization of an abundant subtype of the human calcitonin receptor] cloned from the MCF7 cell line (American Type Tissue Collection, Manassas, Va., USA, Catalog # HTB-22). Human calcitonin receptor (hCT2R) was cloned as a HindIII fragment into plasmid BS SKII. Chinese hamster ovary cells were co-transfected with a 6CRE-luciferase reporter system and hCTR2. HEK cells were transfected with hCTR2.
CHO-6CRE-luciferase cells with or without co-expressed hCTR2 were grown in suspension in commercially available cell culture medium supplemented with 2 mM L-glutamine and 5% fetal bovine serum (FBS). Sixteen hours before each assay, cells were collected and resuspended at 1,000,000 cells/ml in media without FBS. Cells were cultured in spinner flasks at 37° C. in an atmosphere of 5% CO2. At the time of the assay, cells were pelleted by centrifugation and resuspended in media without FBS at a concentration of 250,000 cells/ml. The cell suspension was pipetted into black 96-well microtiter plates (25,000 cells/well) containing test compounds. After a four-hour incubation at 37° C., media was aspirated, followed by addition of 50 microliters of LucLite and PBS (1:1) containing 1 mM CaCl2 and 1 mM MgCl2. The plates were sealed and incubated for 20 minutes in the dark. Luminescent responses were measured using a Packard TopCount.
Structure activity studies were performed on CHO-6CRE-luciferase cells with or without co-transfected hCT2R. Forty-eight hours before each assay, cells were removed with trypsin and plated in 96-well microtiter plates at a concentration of 25–100,000 cells/well. Sixteen hours before each assay, FBS-containing media was removed and replaced with media without FBS. Compounds were added and incubated for four hours at 37° C. After incubation, media was aspirated and 50 microliters of LucLite in PBS (1:1) containing 1 mM CaCl2 and 1 mM MgCl2 were added to each well. Plates were sealed and incubated for 20 minutes in the dark before quantification of luminescence on a Packard TopCount.
Concentration-response curves were calculated and potencies were reported as the concentration of compounds producing half-maximal responses (EC50) or the negative log of the concentration of compounds producing half-maximal responses (pEC50).

pEC50	Compound
7.00 to 8.00	CCOC(=O)c1c(CCc2ccc(F)cc2)nc2c(c1-c1ccc(C(=O)N[C@@H](C)c3ccncc3)c(F)c1)C(=O)N1CCC[C@@H]21 [Example 52, Ethyl (9aS)-2-[2-(4-fluorophenyl)ethyl]-4-[3-fluoro-4-({[(1S)-1-(4-pyridinyl)ethyl]amino}carbonyl)phenyl]-5-oxo-7,8,9,9a-tetrahydro-5H-pyrido[2,3-α]pyrrolizine-3-carboxylate]
7.00 to 8.00	CCOC(=O)c1c(CCC(F)(F)F)nc2c(c1-c1ccc(C(=O)N[C@@H]3CCc4ccccc43)cc1)C(=O)N1CCC[C@@H]21 [Example 44, Ethyl (9aS)-4-(4-{[(1R)-2,3-dihydro-1H-inden-1-ylamino]carbonyl}phenyl)-5-oxo-2-(3,3,3-trifluoropropyl)-7,8,9,9a-tetrahydro-5H-pyrido[2,3-α]pyrrolizine-3-carboxylate]
6.00 to 7.00	CCOC(=O)c1c(Cc2ccsc2)nc2c(c1-c1ccc(C(=O)NCc3ccco3)cc1)C(=O)N1CCCC21 [Example 51, Ethyl (9aS)-4-(4-{[(2-furylmethyl)amino]carbonyl}phenyl)-5-oxo-2-(3-thienylmethyl)-7,8,9,9a-tetrahydro-5H-pyrido[2,3-α]pyrrolizine-3-carboxylate]
6.00 to 7.00	CCOC(=O)c1c(CCc2ccc(C(F)(F)F)cc2)nc2c(c1C1CC1C(=O)NCc1ccccc1)C(=O)N1CCC[C@@H]21 (stereo partly drawn) [Example 3, Ethyl (9aS)-4-{2-[(benzylamino)carbonyl]cyclopropyl}-5-oxo-2-{2-[4-(trifluoromethyl)phenyl]ethyl}-7,8,9,9a-tetrahydro-5H-pyrido[2,3-a]pyrrolizine-3-carboxylate]
7.00 to 8.00	CCOC(=O)c1c(CCc2ccc(C(F)(F)F)cc2)nc2c(c1-c1ccc(C(=O)NCc3ccco3)cc1)C(=O)N1CS(=O)(=O)C[C@@H]21 [Example 35, Ethyl (9aR)-4-(4-{[(2-furylmethyl)amino]carbonyl}phenyl)-5-oxo-2-{2-[4-(trifluoromethyl)phenyl]ethyl}-9,9a-dihydro-5H-[1,3]thiazolo[3′,4′:1,2]pyrrolo[3,4-b]pyridine-3-carboxylate 8,8-dioxide]
≤ 6.00	CCOC(=O)c1c(Cc2ccc(F)cc2)nc2c(c1-c1cc(C(=O)NCCc3cccs3)cc(C(F)(F)F)c1)C(=O)N1CCC[C@@H]21 [Example 54, Ethyl (9aS)-2-(4-fluorobenzyl)-5-oxo-4-[3-({[2-(2-thienyl)ethyl]amino}carbonyl)-5-(trifluoromethyl)phenyl]-7,8,9,9a-tetrahydro-5H-pyrido[2,3-α]pyrrolizine-3-carboxylate]
≥ 8.00	O=C(N[C@@H]1CCc2ccccc21)c1ccc2c(c1)[nH]c(=O)c1c(CCc3ccc(F)cc3)nc3c(c12)C(=O)N1CCC[C@@H]31 [Example 59, (8bS)-N-[(1R)-2,3-dihydro-1H-inden-1-yl]-7-[2-(4-fluorophenyl)ethyl]-6,13-dioxo-5,8b,9,10,11,13-hexahydro-6H-benzo[c]pyrrolizino[2,1-f][2,7]naphthyridine-3-carboxamide]
7.00 to 8.00	CCOC(=O)c1c(CCc2ccc(C(F)(F)F)cc2)nc2c(c1-c1ccc(CNC(=O)c3cccnc3)s1)C(=O)N1CCC[C@@H]21 [Example 47, Ethyl (9aS)-5-oxo-4-(5-{[(3-pyridinylcarbonyl)amino]methyl}-2-thienyl)-2-{2-[4-(trifluoromethyl)phenyl]ethyl}-7,8,9,9a-tetrahydro-5H-pyrido[2,3-α]pyrrolizine-3-carboxylate]
≥ 8.00	CCOC(=O)c1c(CCc2ccc(F)cc2)nc2c(c1-c1cc(C(=O)NC3CCc4ccccc43)cs1)C(=O)N1CCC[C@@H]21 (stereo partly drawn) [Example 15, Ethyl(9aS)-4-{4-[(2,3-dihydro-1H-inden-1-ylamino)carbonyl]-2-thieny}-2-[2-(4-fluorophenyl)ethyl]-5-oxo-7,8,9,9a-tetrahydro-5H-pyrido[2,3-a]pyrrolizine-3-carboxylate]

Continued, molecule first:

Compound	pEC50
CCOC(=O)C1=C(CCc2ccc(C(F)(F)F)cc2)Nc2c(c(=O)n3n2CCC3)C1c1ccc(C(=O)N[C@@H]2CCc3ccccc32)cc1 (stereo partly drawn) [Example 61, Ethyl 4-(4-{[(1R)-2,3-dihydro-1H-inden-1-ylamino]carbonyl}phenyl)-5-oxo-2-{2-[4-(trifluoromethyl)phenyl]ethyl}-1,5,8,9-tetrahydro-4H,7H-pyrazolo[1′,2′:1,2]pyrazolo[3,4-b]pyridine-3-carboxylate]	7.00 to 8.00
CCOC(=O)c1c(CCc2ccc(F)cc2)nc2c(c1-c1ccc(C(=O)NCc3ccco3)cc1)c(=O)n1n2CCC1 [Example 8, Ethyl 2-[2-(4-fluorophenyl)ethyl]-4-(4-{[(2-furylmethyl)amino]carbonyl}phenyl)-5-oxo-8,9-dihydro-5H,7H-pyrazolo[1′,2′:1,2]pyrazolo[3,4-b]pyridine-3-carboxylate]	≥ 8.00
CC(=O)c1c(CCc2ccc(F)cc2)nc2c(c1-c1ccc(C(=O)NCc3ccco3)cc1)C(=O)N1CCC[C@@H]21 [Example 29, 4-{(9aS)-3-acetyl-2-[2-(4-fluorophenyl)ethyl]-5-oxo-7,8,9,9a-tetrahydro-5H-pyrido[2,3-α]pyrrolizin-4-yl}-N-(2-furylmethyl)benzamide]	7.00 to 8.00
CCOC(=O)c1c(Cc2ccc(F)cc2)nc2c(c1-c1ccc(C(=O)NCc3ccco3)nn1)C(=O)N1CCCC21 (stereo not drawn) [Example 39, Ethyl 2-(4-fluorobenzyl)-4-(6-{[(2-furylmethyl)amino]carbonyl}-3-pyridazinyl)-5-oxo-7,8,9,9a-tetrahydro-5H-pyrido[2,3-α]pyrrolizine-3-carboxylate]	7.00 to 8.00
CCOC(=O)c1c(C(F)(F)F)nc2c(c1-c1ccc(C(=O)NCc3cccc(F)c3)cc1)c(=O)n1n2CCC1 [Example 10, Ethyl 4-(4-{[(3-fluorobenzyl)amino]carbonyl}phenyl)-5-oxo-2-(trifluoromethyl)-8,9-dihydro-5H,7H-pyrazolo[1′,2′:1,2]pyrazolo[3,4-b]pyridine-3-carboxylate]	≤ 6.00
CCOC(=O)c1c(CCc2ccc(C(F)(F)F)cc2)nc2c(c1-c1ccc(CC(=O)NCc3ccco3)cc1)C(=O)N1CCC[C@@H]21 [Example 37, Ethyl (9aS)-4-(4-{2-[(2-furylmethyl)amino]-2-oxoethyl}phenyl)-5-oxo-2-{2-[4-(trifluoromethyl)phenyl]ethyl}-7,8,9,9a-tetrahydro-5H-pyrido[2,3-α]pyrrolizine-3-carboxylate]	6.00 to 7.00
CCOC(=O)c1c(Cc2ccc(F)cc2)nc2c(c1-c1ccc(CNC(=O)c3ccccc3)s1)C(=O)N1CCC[C@@H]21 [Example 46, Ethyl (9aS)-4-{5-[(benzoylamino)methyl]-2-thienyl}-2-(4-fluorobenzyl)-5-oxo-7,8,9,9a-tetrahydro-5H-pyrido[2,3-α]pyrrolizine-3-carboxylate]	6.00 to 7.00
CCOC(=O)c1c(CCc2ccc(F)cc2)cc2c(c1-c1ccc(C(=O)NCc3ccco3)cc1)C(=O)N1CCC[C@@H]21 [Example 50, Ethyl (9bS)-8-[2-(4-flurophenyl)ethyl]-6-(4-{[(2-furylmethyl)amino]carbonyl}phenyl)-5oxo-2,3,5,9b-tetrahydro-1H-pyrrolo[2,1-α]isoindole-7-carboxylate]	≤ 6.00
CCOC(=O)C1=C(Cc2ccc(F)cc2)Nc2c(c(=O)n3n2CCC3)C1c1ccc(C(=O)N[C@@H]2CCc3ccccc32)cc1 (stereo partly drawn) [Example 60, Ethyl 4-(4-{[(1R)-2,3-dihydro-1H-inden-1-ylamino]carbonyl}phenyl)-2-(4-fluorobenzyl)-5-oxo-1,5,8,9-tetrahydro-4H,7H-pyrazolo[1′,2′:1,2]pyrazolo[3,4-b]pyridine-3-carboxylate]	6.00 to 7.00
CCOC(=O)c1c(Cc2ccc(F)cc2F)nc2c(c1-c1ccc(C(=O)NCc3ccco3)cc1)C(=O)N1CCC[C@@H]21 [Example 6, Ethyl (9aS)-2-(2,4-difluorobenzyl)-4-(4-{[(2-furylmethyl)amino]carbonyl}phenyl)-5-oxo-7,8,9,9a-tetrahydro-5H-pyrido[2,3-α]pyrrolizine-3-carboxylate]	7.00 to 8.00
